The supplement of paper PMC10883282

Legend:
Assay in all cases: relative viability vs DMSO control (72 h) (fraction); higher = more viable cells
G401 = tested on: G401
Method in brief: (§1)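 Relative viability was measured with ATPLite and expressed as percent growth, averaged across up to triplicate wells. Sarcoma cell lines had been seeded in 384-well plates to reach 80–90% confluence, dosed after 24 h, and incubated 72 h at 37 °C, 5% CO2. All data were rescaled on a scale where 1 is full and 0 is none.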

RD-ES = tested on: RD-ES
Method in brief: as §1

VA-ES-BJ = tested on: VA-ES-BJ
Method in brief: as §1

RD = tested on: RD
Method in brief: as §1

SK-ES-1 = tested on: SK-ES-1
Method in brief: as §1

SK-LMS-1 = tested on: SK-LMS-1
Method in brief: as §1

MES-SA = tested on: MES-SA
Method in brief: as §1

KHOS-NP = tested on: KHOS-NP
Method in brief: as §1

HT1080 = tested on: HT1080
Method in brief: as §1

SW684 = tested on: SW684
Method in brief: as §1

SW1353 = tested on: SW1353
Method in brief: as §1

SW872 = tested on: SW872
Method in brief: as §1

C[C@@H]1COC(Nc2ccc3ncnc(Nc4ccc(OCc5nccs5)c(Cl)c4)c3c2)=N1 [Varlitinib]
Conditions | relative viability
G401, 0.00017 µM | 0.96
G401, 0.00051 µM | 0.979
G401, 0.00152 µM | 0.993
G401, 0.00457 µM | 0.966
G401, 0.01372 µM | 0.981
G401, 0.04115 µM | 0.993
G401, 0.1235 µM | 0.973
G401, 0.3704 µM | 0.939
G401, 1.111 µM | 0.8904
G401, 3.333 µM | 0.8118
G401, 10 µM | 0.663
HT1080, 0.00017 µM | 1.06
HT1080, 0.00051 µM | 1.03
HT1080, 0.00152 µM | 1.05
HT1080, 0.00457 µM | 1.05
HT1080, 0.01372 µM | 1.04
HT1080, 0.04115 µM | 1.06
HT1080, 0.1235 µM | 1
HT1080, 0.3704 µM | 1.01
HT1080, 1.111 µM | 1.02
HT1080, 3.333 µM | 0.99
HT1080, 10 µM | 0.97
KHOS-NP, 0.00017 µM | 1.03
KHOS-NP, 0.00051 µM | 1.05
KHOS-NP, 0.00152 µM | 1.06
KHOS-NP, 0.00457 µM | 1.05
KHOS-NP, 0.01372 µM | 1.06
KHOS-NP, 0.04115 µM | 1.05
KHOS-NP, 0.1235 µM | 1.07
KHOS-NP, 0.3704 µM | 1.06
KHOS-NP, 1.111 µM | 1.04
KHOS-NP, 3.333 µM | 1.04
KHOS-NP, 10 µM | 0.94
MES-SA, 0.00017 µM | 0.965
MES-SA, 0.00051 µM | 0.965
MES-SA, 0.00152 µM | 0.934
MES-SA, 0.00457 µM | 0.97
MES-SA, 0.01372 µM | 0.946
MES-SA, 0.04115 µM | 0.9545
MES-SA, 0.1235 µM | 0.945
MES-SA, 0.3704 µM | 0.888
MES-SA, 1.111 µM | 0.888
MES-SA, 3.333 µM | 0.807
MES-SA, 10 µM | 0.45
RD, 0.00017 µM | 0.983
RD, 0.00051 µM | 0.984
RD, 0.00152 µM | 0.997
RD, 0.00457 µM | 1.02
RD, 0.01372 µM | 0.998
RD, 0.04115 µM | 1.02
RD, 0.1235 µM | 1.05
RD, 0.3704 µM | 1
RD, 1.111 µM | 1.04
RD, 3.333 µM | 1.05
RD, 10 µM | 1.05
RD-ES, 0.00017 µM | 0.968
RD-ES, 0.00051 µM | 1.01
RD-ES, 0.00152 µM | 0.957
RD-ES, 0.00457 µM | 0.985
RD-ES, 0.01372 µM | 0.975
RD-ES, 0.04115 µM | 0.991
RD-ES, 0.1235 µM | 1
RD-ES, 0.3704 µM | 0.948
RD-ES, 1.111 µM | 0.961
RD-ES, 3.333 µM | 0.973
RD-ES, 10 µM | 0.89
SK-ES-1, 0.00017 µM | 0.975
SK-ES-1, 0.00051 µM | 0.974
SK-ES-1, 0.00152 µM | 0.976
SK-ES-1, 0.00457 µM | 0.99
SK-ES-1, 0.01372 µM | 0.971
SK-ES-1, 0.04115 µM | 0.997
SK-ES-1, 0.1235 µM | 0.967
SK-ES-1, 0.3704 µM | 0.962
SK-ES-1, 1.111 µM | 0.948
SK-ES-1, 3.333 µM | 0.873
SK-ES-1, 10 µM | 0.671
SK-LMS-1, 0.00017 µM | 1.01
SK-LMS-1, 0.00051 µM | 1.033
SK-LMS-1, 0.00152 µM | 1.06
SK-LMS-1, 0.00457 µM | 1
SK-LMS-1, 0.01372 µM | 1.02
SK-LMS-1, 0.04115 µM | 1.04
SK-LMS-1, 0.1235 µM | 1.04
SK-LMS-1, 0.3704 µM | 1.04
SK-LMS-1, 1.111 µM | 1.04
SK-LMS-1, 3.333 µM | 0.976
SK-LMS-1, 10 µM | 0.872
SW684, 0.00017 µM | 1.01
SW684, 0.00051 µM | 1.09
SW684, 0.00152 µM | 1.07
SW684, 0.00457 µM | 1.08
SW684, 0.01372 µM | 1.08
SW684, 0.04115 µM | 1.08
SW684, 0.1235 µM | 1.063
SW684, 0.3704 µM | 1.08
SW684, 1.111 µM | 1.06
SW684, 3.333 µM | 1.03
SW684, 10 µM | 1.03
SW872, 0.00017 µM | 1.09
SW872, 0.00051 µM | 1.07
SW872, 0.00152 µM | 1.1
SW872, 0.00457 µM | 1.08
SW872, 0.01372 µM | 1.065
SW872, 0.04115 µM | 1.08
SW872, 0.1235 µM | 1.05
SW872, 0.3704 µM | 1.04
SW872, 1.111 µM | 0.993
SW872, 3.333 µM | 0.939
SW872, 10 µM | 0.743
SW1353, 0.00017 µM | 1.03
SW1353, 0.00051 µM | 0.981
SW1353, 0.00152 µM | 0.968
SW1353, 0.00457 µM | 1.04
SW1353, 0.01372 µM | 0.978
SW1353, 0.04115 µM | 1.01
SW1353, 0.1235 µM | 0.947
SW1353, 0.3704 µM | 0.886
SW1353, 1.111 µM | 0.824
SW1353, 3.333 µM | 0.812
SW1353, 10 µM | 0.738
VA-ES-BJ, 0.00017 µM | 1.06
VA-ES-BJ, 0.00051 µM | 1.06
VA-ES-BJ, 0.00152 µM | 1.05
VA-ES-BJ, 0.00457 µM | 1.04
VA-ES-BJ, 0.01372 µM | 1.08
VA-ES-BJ, 0.04115 µM | 1.07
VA-ES-BJ, 0.1235 µM | 1.12
VA-ES-BJ, 0.3704 µM | 1.09
VA-ES-BJ, 1.111 µM | 1.05
VA-ES-BJ, 3.333 µM | 1.06
VA-ES-BJ, 10 µM | 0.96
